Measured values from ChEMBL document CHEMBL5137093, “Improving Drug Delivery While Tailoring Prodrug Activation to Modulate Cmax and Cmin by Optimization of (Carbonyl)oxyalkyl Linker-Based Prodrugs of Atazanavir” (J Med Chem, 2022).
Values after ≈ are worked out from the molar mass of the structure shown.

Tests used:
[1] = Aqueous stability of the compound in HCL at pH 1 assessed as compound half life measured after 24 hrs by UPLC analysis; assay type: physicochemical; details: for half-life: aqueous HCl, pH 1; for t1/2: buffer, pH 1, 24 h, 24 h
[2] = Aqueous stability of the compound in acetate buffer at pH 4 assessed as compound half life measured after 24 hrs by UPLC analysis; assay type: physicochemical; details: for half-life: acetate buffer, pH 4; for t1/2: buffer, pH 4, 24 h, 24 h
[3] = Aqueous stability of the compound in phosphate buffer at pH 6.5 assessed as compound half life measured after 24 hrs by UPLC analysis; assay type: physicochemical; details: for t1/2: buffer, pH 6.5, 24 h, 24 h; for half-life: phosphate buffer, pH 6.5
[4] = Aqueous solubility of compound at pH 1 by UPLC analysis; assay type: physicochemical
[5] = Aqueous solubility of compound at pH 4 by UPLC analysis; assay type: physicochemical
[6] = Cmax in Sprague-Dawley rat at 3 ml/kg,po measured upto 24 hrs by UPLC-MS/MS analysis; assay type: ADME; set-up: dose 3 ml/kg, time < 24 hrs, route po; details: in vivo
[7] = Tmax in Sprague-Dawley rat at 3 ml/kg,po measured upto 24 hrs by UPLC-MS/MS analysis; assay type: ADME; details: in vivo
[8] = AUClast in Sprague-Dawley rat at 3 ml/kg,po measured upto 24 hrs by UPLC-MS/MS analysis; assay type: ADME; set-up: time < 24 hrs, dose 3 ml/kg, route po; details: in vivo; for AUClast: 24 h; for AUC(0-t) at 24 h: Sprague-Dawley, 3 ml/kg
[9] = Relative Cmax ratio of Atazanavir in Sprague-Dawley rat at 3 ml/kg,po measured upto 24 hrs by UPLC-MS/MS analysis; assay type: ADME; details: in vivo
[10] = Relative AUC ratio of Atazanavir in Sprague-Dawley rat at 3 ml/kg,po measured upto 24 hrs by UPLC-MS/MS analysis; assay type: ADME; details: in vivo
[11] = Fold ratio of total AUC of Atazanavir in Sprague-Dawley rat at 3 ml/kg,po measured upto 24 hrs by UPLC-MS/MS analysis; assay type: ADME; details: in vivo
[12] = Ratio of AUC of Atazanavir in Sprague-Dawley rat at 3 ml/kg,po measured upto 24 hrs by UPLC-MS/MS analysis; assay type: ADME; details: in vivo
[13] = Ratio of Cmax/Cmin of Atazanavir in Sprague-Dawley rat at 3 ml/kg,po measured after 24 hrs by UPLC-MS/MS analysis; assay type: ADME; details: in vivo
[14] = aqueous medium, read-out: solubility

CCC(C)C(OC(=O)O[C@@H](CN(Cc1ccc(-c2ccccn2)cc1)NC(=O)[C@@H](NC(=O)OC)C(C)(C)C)[C@H](Cc1ccccc1)NC(=O)[C@@H](NC(=O)OC)C(C)(C)C)OC(=O)[C@@H](N)C(C)C (mixture of isomers)
half-life [1]: > 500 h
half-life [2]: > 500 h
t1/2 [3]: 27.3 h
solubility [4, 14]: > 2100 µg/mL
solubility [5, 14]: > 1500 µg/mL
Cmax ([6]; 24 h): 805 nM
Tmax ([7]; Sprague-Dawley, read-out: Tmax): 0.3 h
AUClast [8]: 0.724 µM·h
Ratio [9]: 3.8
Ratio [10]: 2.8
Ratio [11]: 4.6
Ratio [12]: 0.68

COC(=O)N[C@H](C(=O)N[C@@H](Cc1ccccc1)[C@H](CN(Cc1ccc(-c2ccccn2)cc1)NC(=O)[C@@H](NC(=O)OC)C(C)(C)C)OC(=O)OC(OC(=O)CCN)C(C)C)C(C)(C)C (stereo in doubt; 3aa)
t1/2 [1]: 376.3 h
t1/2 [2]: 376.3 h
t1/2 [3]: 11.4 h
solubility ([4]; buffer): > 3000 µg/mL
solubility ([5]; buffer): > 2200 µg/mL

COC(=O)N[C@H](C(=O)N[C@@H](Cc1ccccc1)[C@H](CN(Cc1ccc(-c2ccccn2)cc1)NC(=O)[C@@H](NC(=O)OC)C(C)(C)C)OC(=O)OC(OC(=O)C[C@H](N)Cc1cc(F)c(F)cc1F)C(C)C)C(C)(C)C (stereo in doubt; 3ab)
half-life [1]: > 500 h
half-life [2]: 376 h
half-life [3]: 8.9 h
solubility ([4]; buffer): > 960 µg/mL
solubility [5, 14]: > 910 µg/mL

COC(=O)N[C@H](C(=O)N[C@@H](Cc1ccccc1)[C@H](CN(Cc1ccc(-c2ccccn2)cc1)NC(=O)[C@@H](NC(=O)OC)C(C)(C)C)OC(=O)OC(OC(=O)C[C@H](N)Cc1cc(F)c(F)cc1F)C(C)C)C(C)(C)C (stereo in doubt; 3ac)
t1/2 [2]: 334.3 h
t1/2 [3]: 7.4 h
solubility ([4]; buffer): > 2400 µg/mL
solubility ([5]; buffer): 960 µg/mL (≈ 926 µM)
Cmax ([6]; Sprague-Dawley, 3 ml/kg): 989 nM
Tmax ([7]; Sprague-Dawley, read-out: Tmax): 3 h
AUC(0-t) at 24 h [8]: 8.01 µM·h
Ratio [9]: 1.2
Ratio [10]: 6.1
Ratio [11]: 27
Ratio [13]: 36.4
Ratio [12]: 3.4

COC(=O)N[C@H](C(=O)N[C@@H](Cc1ccccc1)[C@H](CN(Cc1ccc(-c2ccccn2)cc1)NC(=O)[C@@H](NC(=O)OC)C(C)(C)C)OC(=O)OC(OC(=O)[C@H](C)N)C(C)C)C(C)(C)C (stereo in doubt; 3p)
half-life [1]: 158 h
half-life [2]: 41.8 h
half-life [3]: 3.6 h
solubility [4, 14]: > 1600 µg/mL
solubility [5, 14]: > 2400 µg/mL
Cmax ([6]; 24 h): 34 nM
Tmax ([7]; Sprague-Dawley, read-out: Tmax): 0.4 h
AUClast [8]: 0.019 µM·h
Ratio [9]: 0.9
Ratio [10]: 0.8
Ratio [11]: 0.9
Ratio [12]: 0.06

COC(=O)N[C@H](C(=O)N[C@@H](Cc1ccccc1)[C@H](CN(Cc1ccc(-c2ccccn2)cc1)NC(=O)[C@@H](NC(=O)OC)C(C)(C)C)OC(=O)OC(OC(=O)[C@H](C)N)C(C)C)C(C)(C)C (stereo in doubt; 3q)
t1/2 [1]: 125.4 h
t1/2 [2]: 30.4 h
t1/2 [3]: 2.7 h
solubility ([4]; buffer): > 1700 µg/mL
solubility ([5]; buffer): > 1800 µg/mL
Cmax ([6]; 24 h): 1900 nM
Tmax ([7]; po, 24 h): 0.3 h
AUClast [8]: 2.129 µM·h
Ratio [9]: 2.3
Ratio [10]: 1.8
Ratio [11]: 7.3
Ratio [13]: 1505
Ratio [12]: 3.09

COC(=O)N[C@H](C(=O)N[C@@H](Cc1ccccc1)[C@H](CN(Cc1ccc(-c2ccccn2)cc1)NC(=O)[C@@H](NC(=O)OC)C(C)(C)C)OC(=O)OC(OC(=O)[C@@H](N)C(C)C)C(C)C)C(C)(C)C (stereo in doubt; 3r)
half-life [1]: > 500 h
half-life [2]: > 500 h
t1/2 [3]: 10.6 h
solubility [4, 14]: > 2600 µg/mL
solubility [5, 14]: > 2500 µg/mL
Ratio [9]: 3.4
Ratio [10]: 3.6
Ratio [11]: 3.6
Ratio [13]: 761.7
Ratio [12]: 0

COC(=O)N[C@H](C(=O)N[C@@H](Cc1ccccc1)[C@H](CN(Cc1ccc(-c2ccccn2)cc1)NC(=O)[C@@H](NC(=O)OC)C(C)(C)C)OC(=O)OC(OC(=O)[C@@H](N)CC(C)C)C(C)C)C(C)(C)C (stereo in doubt; 3t)
t1/2 [1]: > 500 h
t1/2 [2]: 136.8 h
t1/2 [3]: 12 h
solubility [4, 14]: > 1400 µg/mL
solubility [5, 14]: > 1100 µg/mL
Ratio [9]: 2.1
Ratio [10]: 1.3
Ratio [11]: 1.3
Ratio [13]: 304.4
Ratio [12]: 0

COC(=O)N[C@H](C(=O)N[C@@H](Cc1ccccc1)[C@H](CN(Cc1ccc(-c2ccccn2)cc1)NC(=O)[C@@H](NC(=O)OC)C(C)(C)C)OC(=O)OC(OC(=O)[C@@H](N)CC(C)C)C(C)C)C(C)(C)C (stereo in doubt; 3u)
t1/2 [1]: 136.8 h
t1/2 [2]: 59 h
t1/2 [3]: 5.9 h
solubility ([4]; buffer): > 1480 µg/mL
solubility ([5]; buffer): > 1600 µg/mL
Cmax ([6]; Sprague-Dawley, 3 ml/kg): 182 nM
Tmax ([7]; Sprague-Dawley, read-out: Tmax): 0.3 h
AUC(0-t) at 24 h [8]: 0.105 µM·h
Ratio [9]: 2.9
Ratio [10]: 2.1
Ratio [11]: 2.4
Ratio [12]: 0.13

COC(=O)N[C@H](C(=O)N[C@@H](Cc1ccccc1)[C@H](CN(Cc1ccc(-c2ccccn2)cc1)NC(=O)[C@@H](NC(=O)OC)C(C)(C)C)OC(=O)OC(OC(=O)CCN)C(C)C)C(C)(C)C (stereo in doubt; 3z)
half-life [1]: > 500 h
half-life [2]: 334 h
half-life [3]: 10.1 h
solubility [4, 14]: > 1700 µg/mL
solubility [5, 14]: > 1500 µg/mL
Cmax ([6]; Sprague-Dawley, 3 ml/kg): 6 nM
Tmax ([7]; Sprague-Dawley, read-out: Tmax): 1.3 h
AUC(0-t) at 24 h [8]: 0.007 µM·h
Ratio [9]: 6.9
Ratio [10]: 8.7
Ratio [11]: 8.7
Ratio [13]: 1309.3
Ratio [12]: 0

CCC(C)C(OC(=O)O[C@@H](CN(Cc1ccc(-c2ccccn2)cc1)NC(=O)[C@@H](NC(=O)OC)C(C)(C)C)[C@H](Cc1ccccc1)NC(=O)[C@@H](NC(=O)OC)C(C)(C)C)OC(=O)[C@@H](N)C(C)C (stereo in doubt; 4k)
t1/2 [2]: 334.4 h
t1/2 [3]: 13.4 h
solubility ([5]; buffer): > 2600 µg/mL
Cmax ([6]; 24 h): 1840 nM
AUClast [8]: 1.658 µM·h
Ratio [9]: 3.7
Ratio [10]: 3.2
Ratio [11]: 7.5
Ratio [13]: 1631.7
Ratio [12]: 1.34

COC(=O)N[C@H](C(=O)N[C@@H](Cc1ccccc1)[C@H](CN(Cc1ccc(-c2ccccn2)cc1)NC(=O)[C@@H](NC(=O)OC)C(C)(C)C)OC(=O)OC(OC(=O)[C@@H](N)C(C)C)C(C)(C)C)C(C)(C)C (stereo in doubt; 4m)
t1/2 [3]: 23.7 h
solubility ([4]; buffer): > 1200 µg/mL
solubility ([5]; buffer): > 1000 µg/mL
Cmax ([6]; 24 h): 27 nM
Tmax ([7]; po, 24 h): 0.3 h
AUClast [8]: 0.006 µM·h
Ratio [9]: 1.9
Ratio [10]: 2
Ratio [11]: 2
Ratio [13]: 721.4
Ratio [12]: 0.01

COC(=O)N[C@H](C(=O)N[C@@H](Cc1ccccc1)[C@H](CN(Cc1ccc(-c2ccccn2)cc1)NC(=O)[C@@H](NC(=O)OC)C(C)(C)C)OC(=O)OC(OC(=O)[C@@H](N)C(C)C)C1CCCCC1)C(C)(C)C (stereo in doubt; 4o)
t1/2 [2]: > 500 h
t1/2 [3]: 12.7 h
solubility ([4]; buffer): > 2000 µg/mL
solubility ([5]; buffer): > 1100 µg/mL
Cmax ([6]; 24 h): 395 nM
Tmax ([7]; po, 24 h): 0.3 h
AUClast [8]: 0.406 µM·h
Ratio [9]: 1.4
Ratio [10]: 1.1
Ratio [11]: 2.1
Ratio [12]: 0.98

CN[C@H](C(=O)OC(OC(=O)O[C@@H](CN(Cc1ccc(-c2ccccn2)cc1)NC(=O)[C@@H](NC(=O)OC)C(C)(C)C)[C@H](Cc1ccccc1)NC(=O)[C@@H](NC(=O)OC)C(C)(C)C)C(C)C)C(C)C (stereo in doubt; 5e)
half-life [1]: > 500 h
half-life [2]: 376 h
half-life [3]: 4.7 h
solubility [4, 14]: > 2500 µg/mL
solubility [5, 14]: > 1400 µg/mL
Cmax ([6]; Sprague-Dawley, 3 ml/kg): 342 nM
Tmax ([7]; po, 24 h): 0.3 h
AUClast [8]: 0.262 µM·h
Ratio [9]: 4.7
Ratio [10]: 5.3
Ratio [11]: 6
Ratio [13]: 364.4
Ratio [12]: 0.13

CN[C@H](C(=O)OC(OC(=O)O[C@@H](CN(Cc1ccc(-c2ccccn2)cc1)NC(=O)[C@@H](NC(=O)OC)C(C)(C)C)[C@H](Cc1ccccc1)NC(=O)[C@@H](NC(=O)OC)C(C)(C)C)C(C)C)C(C)C (stereo in doubt; 5f)
t1/2 [2]: > 500 h
t1/2 [3]: 2.87 h
solubility ([4]; buffer): > 2000 µg/mL
solubility ([5]; buffer): > 1900 µg/mL
Cmax ([6]; 24 h): 382 nM
Tmax ([7]; po, 24 h): 0.7 h
AUClast [8]: 0.996 µM·h
Ratio [9]: 2.1
Ratio [10]: 4.4
Ratio [11]: 7
Ratio [13]: 194.1
Ratio [12]: 0.59

COC(=O)N[C@H](C(=O)N[C@@H](Cc1ccccc1)[C@H](CN(Cc1ccc(-c2ccccn2)cc1)NC(=O)[C@@H](NC(=O)OC)C(C)(C)C)OC(=O)OC(OC(=O)[C@@H](NC(=O)[C@H](N)C(C)C)C(C)C)C(C)C)C(C)(C)C (stereo in doubt; 6g)
half-life [1]: > 500 h
half-life [2]: 232 h
half-life [3]: 6.1 h
solubility [4, 14]: > 2200 µg/mL
solubility [5, 14]: > 1200 µg/mL
